Laboratory results as given in US11654136B2, “Phosphoinositide 3-kinase inhibitor with a zinc binding moiety” (Curis, Inc., priority 2011, dated 2023).
“Also recorded” adds a separate entry of the source.

How the values were obtained:
[1] = system: HCT116; assay: Cell proliferation assay HCT116; assay type: cell-based; conditions: Homo sapiens, HCT-116, Colon, 72 hours, read-out: IC50 antiproliferative activity
Protocol: (§1) Growth inhibition was accessed by adenosine triphosphate (ATP) content assay using Promega CellTiter-Glo kit. Promega CellTiter-Glo kit is an ATP monitoring system based on firefly luciferase. Briefly, 16 μl of mammalian cell lysis and substrate solution was added to 84 µl of culture medium per well to lyse the cells and stabilize the ATP. The mixture was shaken and incubated for 30 minutes and subsequently the luminescence was measured. IC50 values were calculated using PRISM software (GraphPad Software) with sigmoidal dose-response curve fitting.

[2] = system: Pfeiffer; assay: Cell proliferation assay Pfeiffer; assay type: cell-based; conditions: Homo sapiens, B-Cell Lymphoma, 72 hours, read-out: IC50 antiproliferative activity
Protocol: as §1

[3] = system: SKBr3; assay: Cell proliferation assay SKBr3; assay type: cell-based; conditions: Homo sapiens, SK-BR-3, Breast, 72 hours, read-out: IC50 antiproliferative activity
Protocol: as §1

[4] = system: H292; assay: Cell proliferation assay H292; assay type: cell-based; conditions: Homo sapiens, NCI-H292, NSCLC, 72 hours, read-out: IC50 antiproliferative activity
Protocol: as §1

[5] = system: Granta 519; assay: Cell proliferation assay Granta 519; assay type: cell-based; conditions: Homo sapiens, B-Cell Lymphoma, 72 hours, read-out: IC50 antiproliferative activity
Protocol: as §1

[6] = system: Salmonella typhimurium TA98; assay: Mini-Salmonella/mammalian-microsome reverse mutation assay TA98
Protocol: The tester strains used in the mutagenicity assay were Salmonella typhimurium tester strains TA98 (for detecting frame-shift reverse mutation) and TA100 (for detecting point reverse mutation). The assay was conducted in both the presence and absence of S9 mixture along with concurrent vehicle (DMSO, 20 μl/well) and positive controls in duplicate using 6-well plates. […] A reproducible two-fold increase (>2× of vehicle control) of revertant colonies over the daily average control value is considered a positive response of gene mutation for each strain.
2-nitrofluorene and sodium azide served as the positive controls in the absence of S9 for TA98 and TA100 respectively. 2-Aminoanthracene served as the positive controls in the presence of S9 for TA98 and TA100.

[7] = system: SUP-B15; assay: Cell proliferation assay SUP-B15; assay type: cell-based; conditions: Homo sapiens, ALL, 72 hours, read-out: IC50 antiproliferative activity
Protocol: as §1

[8] = system: HCC1500; assay: Cell proliferation assay HCC1500; assay type: cell-based; conditions: Homo sapiens, Breast, 72 hours, read-out: IC50 antiproliferative activity
Protocol: as §1

[9] = system: marrow lymphocyte progenitor cells; assay: Effect on hematopoietic cells in bone marrow; assay type: in vivo, mice; conditions: 100 mg/kg orally for five consecutive days
Text: Bone marrow was also removed from the mice sacrificed in Example 12. Bone marrow content were collected from the mice long bones and analyzed with flow cytometer. Various markers for progenitor or mature lymphocytes were used.

[10] = system: MOLT-4; assay: Cell proliferation assay MOLT-4; assay type: cell-based; conditions: Homo sapiens, ALL, 72 hours, read-out: IC50 antiproliferative activity
Protocol: as §1

[11] = Pharmacokinetics in nude mice bearing H2122 tumors; assay type: in vivo; conditions: PO 50 mg/kg; for Cmax / bioavailability: mouse
Protocol: Nude mice bearing H2122 (human non-small cell lung cancer cell line) xenograft tumors were used for pharmacokinetics studies. […] At various time points following compound administration, three mice per time point were euthanized with CO2, and blood and tumor tissues were collected. Blood was collected into tubes containing sodium heparin. The plasma was separated via centrifugation. Plasma and tissues were stored at −80° C. for later analysis. A PE Sciex API-3000 LC-MS/MS system (Applied Biosystems, Inc., Foster City, Calif.) was used to analyze compound concentrations in plasma and tumor tissues.

[12] = system: RL; assay: Cell proliferation assay RL; assay type: cell-based; conditions: Homo sapiens, B-Cell Lymphoma, 72 hours, read-out: IC50 antiproliferative activity
Protocol: as §1

[13] = system: HuT78; assay: Cell proliferation assay HuT78; assay type: cell-based; conditions: Homo sapiens, T-Cell Lymphoma, 72 hours, read-out: IC50 antiproliferative activity
Protocol: as §1

[14] = system: BT474; assay: Cell proliferation assay BT474; assay type: cell-based; conditions: Homo sapiens, BT-474, Breast, 72 hours, read-out: IC50 antiproliferative activity
Protocol: as §1

[15] = system: MEG-01; assay: Cell proliferation assay MEG-01; assay type: cell-based; conditions: Homo sapiens, CML, 72 hours, read-out: IC50 antiproliferative activity
Protocol: as §1

[16] = system: H2122 (human NSCLC cell line) xenograft tumors; assay: H2122 xenograft tumor model; assay type: in vivo, nude mice
Protocol: SU-DHL4 (diffuse large B-cell lymphoma cell line), H2122 (human NSCLC cell line), Daudi (non-Hodgkin's lymphoma cell line), and OPM2 (multiple myeloma tumor cell line) cells were implanted into either nude or Scid (severe […] immune-deficient) mice. […]. […] The control groups were treated with vehicle using the same dosing schedule as the corresponding active group.
In another study, the Daudi tumor group was dosed at 50 mg/Kg twice a day for five days per week. […] The SU-DHL4 tumor group was dosed at 100 mg/Kg orally or 50 mg/Kg intravenously.
Tumors were measured during the study period with an electronic caliper, and body weights were measured twice a week. The following formula was used to calculate the tumor volume: […] Percentage of tumor volume change was used to describe compound activity over the treatment period.

[17] = Plasma, H2122 tumor-bearing nude mice

## COc1ccc(-c2nc(N3CCOCC3)c3sc(CN(C)c4ncc(C(=O)NO)cn4)cc3n2)cn1 [Compound 1, N-hydroxy-2-(((2-(6-methoxypyridin-3-yl)-4-morpholinothieno[3,2-d]pyrimidin-6-yl)methyl)(methyl)amino)pyrimidine-5-carboxamide]
[1]
  IC50: < 10 nM
[2]
  IC50: < 10 nM
[3]
  IC50: 10 to 100 nM
[4]
  IC50: < 10 nM
[5]
  IC50: < 10 nM
[6]; +S9, 62.5 μg/well
  Background Lawn TA98: 4/4
  Revertants per well TA98, Mean: 5
  Revertants per well TA98, well 1: 4
  Revertants per well TA98, well 2: 6
[6]; +S9, 125 μg/well
  Background Lawn TA98: 4/4
  Revertants per well TA98, Mean: 5
  Revertants per well TA98, well 1: 6
  Revertants per well TA98, well 2: 3
[6]; +S9, 250 μg/well
  Background Lawn TA98: 4/4
  Revertants per well TA98, Mean: 7
  Revertants per well TA98, well 1: 8
  Revertants per well TA98, well 2: 6
[6]; +S9, 500 μg/well
  Background Lawn TA98: 3,sp/3,sp
  Revertants per well TA98, Mean: 6
  Revertants per well TA98, well 1: 6
  Revertants per well TA98, well 2: 6
[6]; +S9, 1000 μg/well
  Background Lawn TA98: 3,mp/3,mp
  Revertants per well TA98, Mean: 7
  Revertants per well TA98, well 1: 6
  Revertants per well TA98, well 2: 7
[6]; presence and absence of S9, up to 1000 μg/well
  Mutagenic response TA98: no evidence of a significant increase in the mean number of revertant colonies; also recorded: did not induce a positive mutagenic response
[6]; −S9, 62.5 μg/well
  Background Lawn TA98: 4/4
  Revertants per well TA98, Mean: 4
  Revertants per well TA98, well 1: 4
  Revertants per well TA98, well 2: 4
[6]; −S9, 125 μg/well
  Background Lawn TA98: 4/4
  Revertants per well TA98, Mean: 5
  Revertants per well TA98, well 1: 4
  Revertants per well TA98, well 2: 6
[6]; −S9, 250 μg/well
  Background Lawn TA98: 4,sp/4,sp
  Revertants per well TA98, Mean: 6
  Revertants per well TA98, well 1: 6
  Revertants per well TA98, well 2: 5
[6]; −S9, 500 μg/well
  Background Lawn TA98: 3,sp/3,sp
  Revertants per well TA98, Mean: 4
  Revertants per well TA98, well 1: 5
  Revertants per well TA98, well 2: 3
[6]; −S9, 1000 μg/well
  Background Lawn TA98: 3,mp/3,mp
  Revertants per well TA98, Mean: 5
  Revertants per well TA98, well 1: 4
  Revertants per well TA98, well 2: 5
[7]
  IC50: < 10 nM
[8]
  IC50: < 10 nM
[9]
  Marrow lymphocyte progenitor cells: induced a compensatory increase in marrow lymphocyte progenitor cells
[10]
  IC50: < 10 nM
[11]
  Distribution between plasma and tumor tissue: preferentially accumulates in tumor tissue
[11]; [17]
  Area under the Curve: 478 ng/mL * hr
  Half-life: 5.9 h
  Cmax: 186 ng/mL
  bioavailability: 7.8%
[11]; Tumor
  Area under the Curve: 2126 ng/mL * hr
  Half-life: 10.1 h
  Cmax: 154 ng/mL
  bioavailability: 14.8%
[12]
  IC50: < 10 nM
[13]
  IC50: < 10 nM
[14]
  IC50: < 10 nM
[15]
  IC50: < 10 nM
[16]; oral 75 mg/Kg twice a day, H2122 tumor-bearing nude mice
  Body weight: body weight loss
[16]; oral 75 mg/kg twice a day, then 50 mg/Kg twice a day from Day-11, five days per week
  Tumor growth: efficacious

## CS(=O)(=O)N1CCN(Cc2cc3nc(-c4cccc5[nH]ncc45)nc(N4CCOCC4)c3s2)CC1 [GDC-0941, reference compound]
[1]
  IC50: 1000 to 10000 nM
[2]
  IC50: 100 to 1000 nM
[3]
  IC50: > 10000 nM
[4]
  IC50: 1000 to 10000 nM
[5]
  IC50: > 10000 nM
[7]
  IC50: 1000 to 10000 nM
[8]
  IC50: > 10000 nM
[10]
  IC50: 100 to 1000 nM
[12]
  IC50: 1000 to 10000 nM
[13]
  IC50: 100 to 1000 nM
[14]
  IC50: 100 to 1000 nM
[15]
  IC50: > 10000 nM
